Assay results: patent US20230000835A1, “LYSINE-SPECIFIC HISTONE DEMETHYLASE INHIBITORS FOR THE TREATMENT OF MYELOPROLIFERATIVE NEOPLASMS” (Imago Biosciences, Inc., priority 2019, published 2023)
Counter-ions that a name gives are not always drawn.

Experiments:
[1] = test system: patients with high-risk MF; experiment: Phase 1/2a clinical study: hemoglobin, transfusion status and F-cells; type: in vivo, human
Excerpt: A multi-center, open-label study evaluating the safety, tolerability, steady-state pharmacokinetics and pharmacodynamics of Compound 1 administered orally once daily in patients with high-risk MF, including primary myelofibrosis (PMF), post-polycythemia vera myelofibrosis (PPV-MF), and post-essential thrombocythemia myelofibrosis (PET-MF) (collectively referred to as ‘MF’) was initiated as a Phase 1/2A study, and was expanded to a Phase 2b study.
Improvements in hemoglobin (Hb) levels and percent fetal hemoglobin containing erythrocytes (F-cells) were also observed. Of 18 patients enrolled in Phase 1b/2a, 3 presented at day 0 with Hb>10 g/dL and 15 had grade 2 or 3 anemia, with Hb<10 g/dL. Of the 3 with Hb>10 g/dL, 1 improved (defined as an increase of Hb>1 g/dL), 2 worsened (a decrease of Hb>1 g/dL) at day 84 in the course of treatment with Compound 1. Of the 15 patients with Hb<10 g/dL, 9 were transfusion-dependent, and 6 transfusion-independent. Of the 9 transfusion-dependent patients, at day 84, 1 became transfusion-independent and had improved Hb of >1 g/dL, […], and one had increased transfusion frequency.

platelet count = experiment: Clinical study: platelet count titration and peripheral blood counts; type: in vivo, human
Excerpt: Dosing was tailored using platelet count as a biomarker for the effect of bomedemstat activity on megakaryocyte function and activity. The megakaryocytes, the cell in bone marrow and elsewhere that make platelets, are central to the pathogenesis of myelofibrosis and essential thrombocythemia. In both conditions, somatic mutations in bone marrow stem cells result in mature megakaryocytes that produce excess platelets and biologically active proteins that alter the bone marrow niche as well as spill into the circulation resulting in symptoms characteristic of these conditions such as itching and fatigue.
Dosing of such a treatment can be made more precise by titrating the dose to lower the platelet count to a specific range.
In the Phase 1/2a portion of the study, patients started at the presumed sub-therapeutic dose of 0.25 mg/kg/d. Dose-adjustments were made weekly (the lifespan of a human platelet) with dose-titration, either upward or downward, contingent on platelet values at the time of evaluation. Upward titrations were made in increments of 0.125 or 0.0625 mg/kg/d as shown below. Downward titrations were made in decrements of 50% of the current dose. […] The titration target platelet count expected to be associated with most efficacious therapeutic effect was ≥50,000 to <100,000 μL (50-100×10^9/L). The Phase 1/2a titration and re-challenge rules based on weekly evaluation of platelet counts are noted below in Table 1.
A dose-response curve was subsequently generated that provided a titration algorithm to adjust dose to achieve a target platelet count of between 50,000-75,000 platelets per microliter (k/uL), devised with a view to minimizing the probability of severe thrombocytopenia. Excluding both the highest and lowest doses (total daily doses of 4 mg and 100 mg), the mean total daily dose of Compound 1 needed to achieve a platelet count in the target range was 78.3 mg (S.D. 13.8, range 53-90 mg) or the equivalent of approximately 0.7 to 1.2 mg/kg/d. Accordingly, to enable patients to reach more quickly the optimal dose while still maintaining an adequate safety margin, a new Compound 1 starting dose of 0.5 mg/kg QD was selected for all patients entering the Phase 2B portion of the study. The titration and re-challenge rules were also modified in association with this new target (Table 2).
Subsequent to amending the dosing algorithm, a re-analysis of dosing, response and safety was conducted based on the experience with the first sixteen patients. The mean dose needed to achieve and safely maintain a patient in the range of the target platelet count (the “therapeutic dose”) was 63.8 mg/d or 0.85 mg/kg/d (assuming an average weight of 75 kg). […] In a Phase 3 study, the starting dose is anticipated to be 40 mg with one or two additional dose adjustments made in the subsequent 4-6 weeks.

[2] = Non-clinical acute toxicity studies; type: in vivo; settings: even at extremely high doses (human equivalent dose ~20-40 mg/kg)
[3] = day 84, of the 3 patients with Hb>10 g/dL at day 0
[4] = day 84, of the 9 transfusion-dependent patients
[5] = of the 6 transfusion-independent patients with Hb<10 g/dL

CN1CCN(C(=O)[C@H](CCCN[C@@H]2C[C@H]2c2ccc(F)cc2)NC(=O)c2ccc(-n3ccnn3)cc2)CC1 [Compound 1, N-[(2S)-5-{[(1R, 2S)-2-(4-fluorophenyl)cyclopropyl]amino}-1-(4-methylpiperazin-1-yl)-1-oxopentan-2-yl]-4-(1H-1,2,3-triazol-1-yl)benzamide, bis-tosylate salt]
number of patients with improved Hb (increase of Hb>1 g/dL) [1, 3]: 1 | number of patients with worsened Hb (decrease of Hb>1 g/dL) [1, 3]: 2 | number of patients who maintained stable transfusion frequency [1, 4]: 8 | number of patients with increased transfusion frequency [1, 4]: one | number of patients who became transfusion-independent with improved Hb of >1 g/dL ([1]; day 84, of the 9 transfusion-dependent patients with Hb<10 g/dL): 1 | number of patients improved (Hb) [1, 5]: 1 | number of patients remained stable (Hb) [1, 5]: 3 | number of patients worsened (became transfusion dependent or Hb drop by >1 g/dL) [1, 5]: 2 | effect on platelet counts (platelet count; on treatment): reduced platelet counts in all patients | lymphocytes counts (platelet count; on treatment): unchanged | monocyte counts (platelet count; on treatment): generally modestly elevated | peripheral granulocyte counts (platelet count; on treatment): lower on treatment | platelet counts after cessation of treatment (platelet count; washout): rebounded robustly | acute toxicity in non-clinical studies [2]: no evidence in non-clinical studies of acute toxicity
